Where two headings read alike, the source gives them in different places. Some results are limits rather than exact numbers.

In assay [1] the test system is T47D cells. Briefly: Cell viability (Cell Titer Glo 2.0) in T47D cells, 120 hours. Type of assay: cell-based. As to the method:
(§1) HCC1954 breast ductal carcinoma and T47D cells (ATCC, Manassas, VA, USA) were seeded into 384-well white-walled culture plates and allowed to adhere for 2-4 hours. Cells were then treated at least in duplicate by addition of 5-fold serially diluted test articles prepared at 2× final concentration and incubated at 37° C. for 120 hours. Cell viability following treatment was determined by Cell Titer Glo 2.0 Assay (Promega, Madison, WI, USA) and normalized to non-treated controls. Dose-response relationships were analyzed using GraphPad Prism (La Jolla, CA, USA), and IC50 values were derived from non-linear regression analyses using a 4-parameter logistic equation.

For assay [2], the system named is HCC1954 breast ductal carcinoma. The assay is described as follows: Cell viability (Cell Titer Glo 2.0) in HCC1954, 120 hours. Type of assay: cell-based. Particulars: for potency compared to the 1,4-NH2 configuration of the P5 moiety in 19 and 26: HCC1954 and T47D assays. As for the experimental part:
as §1

[3] abbreviates: N-methylated analogs 1,2-/1,3-/1,4-NH2, relative to the 1,3-NH2 analog (=1).
Where [4] appears, read: NCH3-amide compared to its NH-amide analog (=1).
Where [5] appears, read: Homo sapiens, HCC1954, 120 h, read-out: IC50 (nM), in vitro potency in HCC1954.
Where [6] appears, read: Trastuzumab conjugate of the numbered linker-payload, HCC1954, read-out: ADC (Trastuzumab) IC50 in HCC1954 assay.

As for `CC[C@H](C)[C@@H]([C@@H](CC(=O)N1CCC[C@H]1[C@H](OC)[C@@H](C)C(=O)N(C)CCc1cccc(N)c1)OC)N(C)C(=O)[C@@H](NC(=O)[C@H](C(C)C)N(C)C)C(C)C` [Compound 1, (S)-N-((3R,4S,5S)-1-((S)-2-((1R,2R)-3-((3-aminophenethyl)(methyl)amino)-1-methoxy-2-methyl-3-oxopropyl)pyrrolidin-1-yl)-3-methoxy-5-methyl-1-oxoheptan-4-yl)-2-((S)-2-(dimethylamino)-3-methylbutanamido)-N,3-dimethylbutanamide], the “IC50 (fold difference) T47D” value was 1 fold difference in assay [1] (setting [3]) and 1.6 fold difference in assay [1] (setting [4]). The “potency compared to the 1,4-NH2 configuration of the P5 moiety in 19 and 26” value in assay [2] was “more potent”. In addition, the IC50 in assay [2] (setting [5]) is less than 5 nM. The “IC50 (fold difference) HCC1954” value in assay [2] (setting [3]) was determined as 1 fold difference; in assay [2] (setting [4]), 1.5 fold difference.

Regarding `CC[C@H](C)[C@@H]([C@@H](CC(=O)N1CCC[C@H]1[C@H](OC)[C@@H](C)C(=O)N(C)CCc1cccc(N)c1)OC)N(C)C(=O)[C@@H](NC(=O)[C@H](C)N(C)C)C(C)C` [Compound 2, (S)-N-((3R,4S,5S)-1-((S)-2-((1R,2R)-3-((3-aminophenethyl)(methyl)amino)-1-methoxy-2-methyl-3-oxopropyl)pyrrolidin-1-yl)-3-methoxy-5-methyl-1-oxoheptan-4-yl)-2-((S)-2-(dimethylamino)propanamido)-N,3-dimethylbutanamide], the “IC50 (fold difference) T47D” value in assay [1] (setting [3]) is 1 fold difference. In addition, the “potency compared to the 1,4-NH2 configuration of the P5 moiety in 19 and 26” value in assay [2] is on record as “more potent”. For the same compound, in assay [2] (setting [5]), the IC50 was less than 5 nM. In addition, the “IC50 (fold difference) HCC1954” value in assay [2] (setting [3]) is on record as 1 fold difference.

Consider `CC[C@H](C)[C@@H]([C@@H](CC(=O)N1CCC[C@H]1[C@H](OC)[C@@H](C)C(=O)N(C)CCc1ccccc1N)OC)N(C)C(=O)[C@@H](NC(=O)[C@H](C(C)C)N(C)C)C(C)C` [Compound 14, (S)-N-((3R,4S,5S)-1-((S)-2-((1R,2R)-3-((2-aminophenethyl)(methyl)amino)-1-methoxy-2-methyl-3-oxopropyl)pyrrolidin-1-yl)-3-methoxy-5-methyl-1-oxoheptan-4-yl)-2-((S)-2-(dimethylamino)-3-methylbutanamido)-N,3-dimethylbutanamide], for which the entries for the “IC50 (fold difference) T47D” value in assay [1] (setting [3]) and in assay [1] (setting [4]) were 1.3 fold difference and 1.8 fold difference, respectively. Further, the “potency compared to the 1,4-NH2 configuration of the P5 moiety in 19 and 26” value in assay [2] is “more potent”. The IC50 in assay [2] (setting [5]) is less than 5 nM. Besides, the “IC50 (fold difference) HCC1954” value in assay [2] (setting [3]) came out at 0.8 fold difference; in assay [2] (setting [4]) it was 2.0 fold difference.

As to `CC[C@H](C)[C@@H]([C@@H](CC(=O)N1CCC[C@H]1[C@H](OC)[C@@H](C)C(=O)N(C)CCc1ccccc1N)OC)N(C)C(=O)[C@@H](NC(=O)[C@H](C)N(C)C)C(C)C` [Compound 16, (S)-N-((3R,4S,5S)-1-((S)-2-((1R,2R)-3-((2-aminophenethyl)(methyl)amino)-1-methoxy-2-methyl-3-oxopropyl)pyrrolidin-1-yl)-3-methoxy-5-methyl-1-oxoheptan-4-yl)-2-((S)-2-(dimethylamino)propanamido)-N,3-dimethylbutanamide], the “IC50 (fold difference) T47D” value in assay [1] (setting [3]) turned out to be 3.4 fold difference. Moreover, the “potency compared to the 1,4-NH2 configuration of the P5 moiety in 19 and 26” value in assay [2] is recorded as “more potent”. Besides, the IC50 in assay [2] (setting [5]) was less than 5 nM. Also, the “IC50 (fold difference) HCC1954” value in assay [2] (setting [3]) is 1.8 fold difference.

Consider `CC[C@H](C)[C@@H]([C@@H](CC(=O)N1CCC[C@H]1[C@H](OC)[C@@H](C)C(=O)N(C)CCc1cccc(NC(=O)[C@H](C)NC(=O)[C@H](C)NC(=O)CN2C(=O)C=CC2=O)c1)OC)N(C)C(=O)[C@@H](NC(=O)[C@@H](C)N(C)C)C(C)C` [Compound 30, (S)-2-((R)-2-(dimethylamino)propanamido)-N-((3R,4S,5S)-1-((S)-2-((1R,2R)-3-((3-((S)-2-((S)-2-(2-(2,5-dioxo-2,5-dihydro-1H-pyrrol-1-yl)acetamido)propanamido)propanamido)phenethyl)(methyl)amino)-1-methoxy-2-methyl-3-oxopropyl)pyrrolidin-1-yl)-3-methoxy-5-methyl-1-oxoheptan-4-yl)-N,3-dimethylbutanamide 2,2,2-trifluoroacetate], for which, in assay [2] (setting [6]), the IC50 was less than 5 nM.

Regarding `CC[C@H](C)[C@@H]([C@@H](CC(=O)N1CCC[C@H]1[C@H](OC)[C@@H](C)C(=O)N(C)CCc1cccc(NC(=O)[C@H](C)NC(=O)[C@H](C)NC(=O)CN2C(=O)C=CC2=O)c1)OC)N(C)C(=O)[C@@H](NC(=O)CN(C)C)C(C)C` [Compound 31, (S)-2-(2-(dimethylamino)acetamido)-N-((3R,4S,5S)-1-((S)-2-((IR,2R)-3-((3-((S)-2-((S)-2-(2-(2,5-dioxo-2,5-dihydro-1H-pyrrol-1-yl)acetamido)propanamido)propanamido)phenethyl)(methyl)amino)-1-methoxy-2-methyl-3-oxopropyl)pyrrolidin-1-yl)-3-methoxy-5-methyl-1-oxoheptan-4-yl)-N,3-dimethylbutanamide 2,2,2-trifluoroacetate], in assay [2] (setting [6]), the IC50 is less than 5 nM.

Regarding `CC[C@H](C)[C@@H]([C@@H](CC(=O)N1CCC[C@H]1[C@H](OC)[C@@H](C)C(=O)N(C)CCc1cccc(NC(=O)[C@H](C)NC(=O)[C@H](C)NC(=O)CN2C(=O)C=CC2=O)c1)OC)N(C)C(=O)[C@@H](NC(=O)C(C)(C)N(C)C)C(C)C` [Compound 32, (S)-2-(2-(dimethylamino)-2-methylpropanamido)-N-((3R,4S,5S)-1-((S)-2-((1R,2R)-3-((3-((S)-2-((S)-2-(2-(2,5-dioxo-2,5-dihydro-1H-pyrrol-1-yl)acetamido)propanamido)propanamido)phenethyl)(methyl)amino)-1-methoxy-2-methyl-3-oxopropyl)pyrrolidin-1-yl)-3-methoxy-5-methyl-1-oxoheptan-4-yl)-N,3-dimethylbutanamide 2,2,2-trifluoroacetate], the IC50 in assay [2] (setting [6]) is less than 5 nM.

Regarding `CC[C@H](C)[C@@H]([C@@H](CC(=O)N1CCC[C@H]1[C@H](OC)[C@@H](C)C(=O)N(C)CCc1cccc(NC(=O)[C@H](C)NC(=O)[C@H](C)NC(=O)CN2C(=O)C=CC2=O)c1)OC)N(C)C(=O)[C@@H](NC(=O)C1(N(C)C)CCC1)C(C)C` [Compound 33, 1-(dimethylamino)-N-((S)-1-(((3R,4S,5S)-1-((S)-2-((1R,2R)-3-((3-((S)-2-((S)-2-(2-(2,5-dioxo-2,5-dihydro-1H-pyrrol-1-yl)acetamido)propanamido)propanamido)phenethyl)(methyl)amino)-1-methoxy-2-methyl-3-oxopropyl)pyrrolidin-1-yl)-3-methoxy-5-methyl-1-oxoheptan-4-yl)(methyl)amino)-3-methyl-1-oxobutan-2-yl)cyclobutanecarboxamide 2,2,2-trifluoroacetate], the IC50 in assay [2] (setting [6]) was greater than 10 nM.

As to `CC[C@H](C)[C@@H]([C@@H](CC(=O)N1CCC[C@H]1[C@H](OC)[C@@H](C)C(=O)N(C)CCc1cccc(NC(=O)[C@H](C)NC(=O)[C@H](C)NC(=O)CN2C(=O)C=CC2=O)c1)OC)N(C)C(=O)[C@@H](NC(=O)[C@H]1CCCN1C)C(C)C` [Compound 37, (R)-N-((S)-1-(((3R,4S,5S)-1-((S)-2-((IR,2R)-3-((3-((S)-2-((S)-2-(2-(2,5-dioxo-2,5-dihydro-1H-pyrrol-1-yl)acetamido)propanamido)propanamido)phenethyl)(methyl)amino)-1-methoxy-2-methyl-3-oxopropyl)pyrrolidin-1-yl)-3-methoxy-5-methyl-1-oxoheptan-4-yl)(methyl)amino)-3-methyl-1-oxobutan-2-yl)-1-methylpyrrolidine-2-carboxamide 2,2,2-trifluoroacetate], the IC50 in assay [2] (setting [6]) is less than 5 nM.

For the compound `CC[C@H](C)[C@@H]([C@@H](CC(=O)N1CCC[C@H]1[C@H](OC)[C@@H](C)C(=O)N(C)CCc1cccc(NC(=O)[C@H](C)NC(=O)[C@H](C)NC(=O)CN2C(=O)C=CC2=O)c1)OC)N(C)C(=O)[C@@H](NC(=O)C(C)(C)CN(C)C)C(C)C` [Compound 38, (S)-2-(3-(dimethylamino)-2,2-dimethylpropanamido)-N-((3R,4S,5S)-1-((S)-2-((1R,2R)-3-((3-((S)-2-((S)-2-(2-(2,5-dioxo-2,5-dihydro-1H-pyrrol-1-yl)acetamido)propanamido)propanamido)phenethyl)(methyl)amino)-1-methoxy-2-methyl-3-oxopropyl)pyrrolidin-1-yl)-3-methoxy-5-methyl-1-oxoheptan-4-yl)-N,3-dimethylbutanamide 2,2,2-trifluoroacetate], the IC50 in assay [2] (setting [6]) is greater than 10 nM.

On to `CC[C@H](C)[C@@H]([C@@H](CC(=O)N1CCC[C@H]1[C@H](OC)[C@@H](C)C(=O)N[C@@H](Cc1ccccc1)c1nccs1)OC)N(C)C(=O)[C@@H](NC(=O)[C@H](C(C)C)N(C)C)C(C)C` [Dolastatin 10, dolastatin 10, reference compound], for which the “IC50[N—Me amide]/IC50[NH-amide]” value in assay [2] (HCC1954 5-Day Assay, N-methylation of the amide between P4 and P5) was found to be 240.
